Values joined by “and” are separate entries in the source; they are usually repeats but may differ in a detail not shown here. Identical values can stand only once. Like-named read-outs stand apart in the source and are kept apart here. Values belong to the compound of their own block, whether it stands above or below them.
What was measured:
[1] = ~4 months at ambient conditions
[2] = potassium laurate solubility in various solvents (solvent added dropwise under sonication); format: physicochemical; conditions: thermodynamic from solid
Method: In order to select the reaction solvents and their optimized volumes, the solubility of potassium laurate in various solvents was checked by adding solvent to dissolve the solids under sonication. A vial was charged with potassium laurate (˜100 mg) and then solvent was added dropwise under sonication. The potassium laurate could not be dissolved with most solvents (200 vol.).

HPLC Results Glycopyrronium (Expt. 1A: Me-THF Solution at RT over weekend): 87.72 AUC % and 87.72% AUC %
HPLC Results Glycopyrronium (Expt. 1B: Me-THF Solution at 50° C. over weekend, Bottom layer): 49.47% AUC %
HPLC Results Glycopyrronium (Expt. 1B: Me-THF Solution at 50° C. over weekend, Top layer): 57 AUC % and 57.13% AUC %
HPLC Results Glycopyrronium (Expt. 2A: Me-THF Solution in the presence of Lauric Acid at RT over weekend): 89.44% AUC %
HPLC Results Glycopyrronium (Expt. 2B: Me-THF Solution in the presence of Lauric Acid at 50° C. over weekend, Bottom layer): 65.60% AUC %
HPLC Results Glycopyrronium (Expt. 2B: Me-THF Solution in the presence of Lauric Acid at 50° C. over weekend, Top layer): 69.58% AUC %
Structure (SMILES): C[N+]1(C)CCC(OC(=O)C(O)(c2ccccc2)C2CCCC2)C1 (centres unmarked) [glycopyrronium laurate]

degradation over time [1]: degradation was observed
Structure (SMILES): C[N+]1(C)CCC(OC(=O)C(O)(c2ccccc2)C2CCCC2)C1 (centres unmarked) [glycopyrronium stearate]

Structure (SMILES): CCCCCCCCCCCC(=O)[O-].[K+] [potassium laurate]
solubility ([2]; organic solvent or mixture, Acetone, 50° C.): < 5000 µg/mL
solubility ([2]; organic solvent or mixture, Acetone, room temperature, read-out: potassium laurate solubility At Room Temperature): < 5000 µg/mL
solubility ([2]; organic solvent or mixture, Butyl Acetate, 50° C.): < 5000 µg/mL
solubility ([2]; organic solvent or mixture, Butyl Acetate, room temperature, read-out: potassium laurate solubility At Room Temperature): < 5000 µg/mL
solubility ([2]; organic solvent or mixture, Ethanol, room temperature, read-out: potassium laurate solubility At Room Temperature): ~14000 µg/mL
solubility ([2]; organic solvent or mixture, Ethyl Acetate, 50° C.): < 5000 µg/mL
solubility ([2]; organic solvent or mixture, Ethyl Acetate, room temperature, read-out: potassium laurate solubility At Room Temperature): < 5000 µg/mL
solubility ([2]; organic solvent or mixture, IPA, 50° C.): < 5000 µg/mL
solubility ([2]; organic solvent or mixture, IPA, room temperature, read-out: potassium laurate solubility At Room Temperature): < 5000 µg/mL
solubility ([2]; organic solvent or mixture, Isopropyl Acetate, 50° C.): < 5000 µg/mL
solubility ([2]; organic solvent or mixture, Isopropyl Acetate, room temperature, read-out: potassium laurate solubility At Room Temperature): < 5000 µg/mL
solubility ([2]; organic solvent or mixture, MEK, 50° C.): < 5000 µg/mL
solubility ([2]; organic solvent or mixture, MEK, room temperature, read-out: potassium laurate solubility At Room Temperature): < 5000 µg/mL
solubility ([2]; organic solvent or mixture, MIBK, 50° C.): < 5000 µg/mL
solubility ([2]; organic solvent or mixture, MIBK, room temperature, read-out: potassium laurate solubility At Room Temperature): < 5000 µg/mL
solubility ([2]; organic solvent or mixture, Methanol, room temperature, read-out: potassium laurate solubility At Room Temperature): ~50000 µg/mL
solubility ([2]; organic solvent or mixture, Methyl Acetate, 50° C.): < 5000 µg/mL
solubility ([2]; organic solvent or mixture, Methyl Acetate, room temperature, read-out: potassium laurate solubility At Room Temperature): < 5000 µg/mL
solubility ([2]; Water, room temperature, read-out: potassium laurate solubility At Room Temperature): ~138000 µg/mL

— patent US10519109B2, “Glycopyrronium fatty acid salts and methods of making same” (QAAM PHARMACEUTICALS, LLC, priority 2015, dated 2019)
